Usually IC50 stands for the concentration at which inhibition is half-maximal. The term inhibition denotes how much of the control response was suppressed. A lower inhibition goes with little suppression.

Common to all, as to format: binding
One test deals with PCP3 sites. Briefly: [3H]TCP displacement, cerebellum membranes, 2-site model, PCP3. As to conditions: [3H]TCP 2.5 nM, rat cerebellum. How it is done:
(§1) The affinity of the compounds for their potential bond site, can be evaluated by quantifying their ability to displace a specific tritiated label of a given site. The bond experiences are carried out by competition between the molecule to be tested and the appropriate radioligand on a membrane preparation rich in sites to be studied. The concentration of the derivative tested which inhibits 50% of the bond of the radioligand to the receptor is called IC50.
(§2) For the experimental conditions and membrane preparation techniques used, reference can be made to the literature (Brain Res., 378, 133-141 (1986); Eur. J. Pharm., 81, 531-542 (1982)).
(§3) For low affinity sites, the monosite treatment used led to incoherent results. The experimental data have therefore been reprocessed using non-linear regression (Marquardt-Levenberg algorithm) with Sigma Plot software (Jandel) according to a model with two noted sites of interaction PCP2 and PCP3. This processing proves to be more suitable than a monosite treatment (Student test: p<0.05) over a set of 3 to 4 experiments for each compound tested. Over all the experiments, the two site populations are found in a relative proportion to 68.0% (±1.5) for the PCP2 sites and 31.2% (±1.5) for the PCP3 sites.
(§4) For the PCP2 and PCP3 sites, the preparation originates from rat cerebella. Not having a specific label, only [^3H]TCP can be used. A more significant concentration of tritiated ligand (2.5 nM versus 1 nM in the cortex) is used to ensure that all the PCP2 and PCP3 sites are occupied.

The target in the next test is T1, PCP1 sites (Rattus norvegicus, UniProt P35439).
T1 construct: membrane preparations originating from anterior cerebrum homogenates of rats; from tissue; host or cells: rat anterior cerebrum (forebrain/cortex) membranes
Briefly: [3H]TCP displacement, cortex membranes, 1-site model. As to conditions: for cortex 1 site nH: Hill number of the cortex displacement curve. As to the method: The affinity of the compounds for their potential bond site, can be evaluated by quantifying their ability to displace a specific tritiated label of a given site. The bond experiences are carried out by competition between the molecule to be tested and the appropriate radioligand on a membrane preparation rich in sites to be studied.
For the PCP1 sites, the tritiated label used is [^3H]TCP and the tests are carried out on membrane preparations originating from anterior cerebrum homogenates of rats.

The target of a further test is PCP2 sites. The test can be described thus: [3H]TCP displacement, cerebellum membranes, 2-site model, PCP2. As to conditions: [3H]TCP 2.5 nM, rat cerebellum. How it is done:
as §1, §2, §3, §4

For a further test, the target named is T2, PCP receptors (Rattus norvegicus, UniProt P35439).
T2 construct: membrane preparations originating from cerebral cortex of a rat; from tissue; host or cells: rat cerebral cortex membranes
The test can be described thus: Percentage inhibition on PCP receptors ([3H]TCP, cerebral cortex membranes). As to conditions: compound 10 μM. How it is done: Percentage inhibition on PCP receptors:
The tritiated label used is [^3H]TCP and the tests are carried out on membrane preparations originating from cerebral cortex of a rat (Brain Res., 378, 133-141 (1986).

Where [1] appears, read: [3H]TCP 1 nM, rat cortex (anterior cerebrum) membranes, read-out: cortex 1 site IC50.
[2] abbreviates: cortex 1 site IC50, [3H]TCP 1 nM, rat cortex membranes, bound in μM.
[3] abbreviates: cortex 1 site IC50, [3H]TCP 1 nM, rat cortex (anterior cerebrum) membranes.

Where two headings read alike, the source gives them in different places.

Take `CC1CCCN(C2(c3cccs3)CCSCC2)C1` (racemic) [Ex 2, (±)-N-[4-(2-thienyl)-tetrahydro-4H-thiopyran-4-yl]-3-methyl-piperidine]: the IC50 on PCP3 sites (two-site non-linear regression) came to 2.85 µM; at PCP1 sites (setting [1]), 0.132 µM; on PCP2 sites (two-site non-linear regression), 0.265 µM. The “cortex 1 site nH” value at PCP1 sites turned out to be 1.14.
Take `CC1CCCN(C2(c3cc4ccccc4s3)CCSCC2)C1` (racemic) [Ex 5, (±)-N-[4-(2-benzothiophenyl)-tetrahydro-4H-thiopyran-4-yl]-3-methyl-piperidine]: the values for the IC50 at PCP3 sites (two-site non-linear regression), at PCP1 sites (setting [2]) and on PCP2 sites (bound in μM) were 0.581 µM, more than 100 µM and more than 100 µM, respectively.
For `CC1CCCN(C2(c3cccs3)CCCCC2)C1` (racemic) [Ex 22 (±), N-[1-(2-thienyl)-cyclohexan-1-yl]-3-methyl piperidine], the IC50 came out at 1.45 µM at PCP3 sites (two-site non-linear regression), 0.0055 µM on PCP1 sites (setting [3]) and 0.0473 µM at PCP2 sites (two-site non-linear regression). Also, on PCP1 sites, the “cortex 1 site nH” value is 1.09.
Turning to `CC1CSCCC1(c1cccs1)N1CCCCC1` (single isomer, unassigned) [Ex 1 (majority), N-[4-(2-thienyl)-3-methyl-tetrahydro-4H-thiopyran-4-yl] piperidine], the “cortex 1 site nH” value at PCP1 sites was found to be 0.94. Moreover, at PCP1 sites (setting [3]), the IC50 is 17.2 µM.
As to `CC1CSCCC1(c1cccs1)N1CCCCC1` (single isomer, unassigned) [Ex 1 (minority), N-[4-(2-thienyl)-3-methyl-tetrahydro-4H-thiopyran-4-yl] piperidine], the values for the IC50 on PCP3 sites (two-site non-linear regression), at PCP1 sites (setting [3]) and on PCP2 sites (two-site non-linear regression) were 0.0176 µM, 0.0268 µM and 1.35 µM, respectively. The “cortex 1 site nH” value at PCP1 sites is recorded as 0.89.
The matching figures for `CC1CCCN(C2(c3cccs3)CCCCC2)C1` (single isomer, unassigned) [Ex 22 (+), N-[1-(2-thienyl)-cyclohexan-1-yl]-3-methyl piperidine]: 0.808 µM, 0.0052 µM, 0.0283 µM and 1.04.
In the case of `CC1CCCN(C2(c3cccs3)CCCCC2)C1` (single isomer, unassigned) [Ex 22 (−), N-[1-(2-thienyl)-cyclohexan-1-yl]-3-methyl piperidine], at PCP1 sites, the “cortex 1 site nH” value is recorded as 1.08. Also, the IC50 on PCP1 sites (setting [3]) amounted to 0.158 µM.
Consider `C[C@@H]1CCCN(C2(c3cccs3)CCSCC2)C1` [Ex 4, R-(+)-N-[4-(2-thienyl)-tetrahydro-4H-thiopyran-4-yl]-3-methyl-piperidine], for which the figures for the IC50 on PCP3 sites (two-site non-linear regression), at PCP1 sites (setting [1]) and on PCP2 sites (two-site non-linear regression) were 2.08 µM, 0.024 µM and 0.0532 µM, respectively. Besides, the “cortex 1 site nH” value at PCP1 sites is given as 0.84.
In the case of `C[C@@H]1CCCN(C2(c3cc4ccccc4s3)CCSCC2)C1` [Ex 6, R-(+)-N-[4-(2-benzothiophenyl)-tetrahydro-4H-thiopyran-4-yl]-3-methyl-piperidine], the values for the IC50 on PCP3 sites (two-site non-linear regression), on PCP1 sites (setting [2]) and on PCP2 sites (bound in μM) were 0.28 µM, more than 100 µM and more than 100 µM, respectively.
`C[C@H]1CCCN(C2(c3cc4ccccc4s3)CCSCC2)C1` [Ex 7, S-(−)-N-[4-(2-benzothiophenyl)-tetrahydro-4H-thiopyran-4-yl]-3-methyl-piperidine]: the IC50 at PCP3 sites (two-site non-linear regression) amounted to 0.639 µM; at PCP1 sites (setting [3]), 82.8 µM; at PCP2 sites (two-site non-linear regression) it was 84 µM. The “cortex 1 site nH” value at PCP1 sites is 0.73.
For `OCC1CCCN(C2(c3cccs3)CCCCC2)C1` (stereo not drawn) [Ex 8, N-[1-(2-thienyl)-cyclohexan-1-yl]-3-hydroxymethyl-piperidine], the IC50 on PCP3 sites (two-site non-linear regression) was 0.0124 µM; at PCP1 sites (setting [1]), 0.0284 µM; at PCP2 sites (two-site non-linear regression), 2.24 µM. In addition, on PCP1 sites, the “cortex 1 site nH” value is recorded as 0.96.
Turning to `c1coc(C2(N3CCCCC3)CCSCC2)c1` [Ex 9, N-[4-(2-furyl)-tetrahydro-4H-thiopyran-4-yl]-piperidine], the 50% inhibitory concentration (IC50) at PCP3 sites (two-site non-linear regression) was 0.0138 µM; on PCP1 sites (setting [1]) it was 0.133 µM; at PCP2 sites (two-site non-linear regression), 1.02 µM. In addition, on PCP1 sites, the “cortex 1 site nH” value is 0.87. The same molecule gave an inhibition at 10 µM against PCP receptors of 96%.
Take `c1ccc2oc(C3(N4CCCCC4)CCSCC3)cc2c1` [Ex 10, N-[4-(2-benzofuryl)-tetrahydro-4H-thiopyran-4-yl]-piperidine]: the IC50 at PCP3 sites (two-site non-linear regression) stood at 0.0591 µM; at PCP1 sites (setting [1]), 27.5 µM; at PCP2 sites (two-site non-linear regression) it was 26.6 µM. Besides, the “cortex 1 site nH” value on PCP1 sites came to 0.9. In addition, on PCP receptors, testing at 10 µM gave an inhibition of 18%.
Regarding `Cc1ccc(C2(N3CCCCC3)CCSCC2)s1` [Ex 11, N-[4-(5-methyl-thiophen-2-yl)-tetrahydro-4H-thiopyran-4-yl]-piperidine], the IC50 on PCP3 sites (bound in μM) is more than 100 µM; at PCP1 sites (setting [1]), 0.462 µM; on PCP2 sites (two-site non-linear regression), 0.532 µM. In addition, the “cortex 1 site nH” value on PCP1 sites was found to be 0.97.
As for `Cc1csc(C2(N3CCCCC3)CCSCC2)c1` [Ex 12, N-[4-(4-methyl-thiophen-2-yl)-tetrahydro-4H-thiopyran-4-yl]-piperidine], the IC50 was determined as 0.0054 µM on PCP3 sites (two-site non-linear regression), 0.0778 µM at PCP1 sites (setting [1]) and 0.772 µM on PCP2 sites (two-site non-linear regression). Moreover, on PCP1 sites, the “cortex 1 site nH” value is reported as 0.93.
Turning to `CCNC1(c2cccs2)CCCCC1` [Ex 17, N-ethyl-1-(2-thienyl)-cyclohexylamine], the IC50 at PCP3 sites (two-site non-linear regression) is 47.6 µM; at PCP1 sites (setting [3]), 0.0209 µM; at PCP2 sites (two-site non-linear regression) it was 0.055 µM. Also, the “cortex 1 site nH” value on PCP1 sites turned out to be 0.77.
Take `c1coc(C2(N3CCCCC3)CCCCC2)c1` [Ex 18, N-[1-(2-furyl)-cyclohexan-1-yl] piperidine]: the IC50 on PCP3 sites (two-site non-linear regression) stood at 0.0056 µM; at PCP1 sites (setting [1]), 0.0078 µM; on PCP2 sites (two-site non-linear regression), 0.187 µM. The “cortex 1 site nH” value on PCP1 sites was found to be 0.83.
The matching figures for `c1csc(C2(N3CCCCC3)CCSCC2)c1` [Ex 19, N-[4-(2-thienyl)-tetrahydro-4H-thiopyran-4-yl] piperidine]: 0.0085 µM, 0.0716 µM, 0.586 µM and 1.05.
The like results for `c1csc(C2(N3CCCCC3)CCOCC2)c1` [Ex 20, N-[4-(2-thienyl)-tetrahydro-4H-pyran-4-yl] piperidine] were, in that order, 0.035 µM, 1.22 µM, 5.84 µM and 0.98.
The like results for `c1csc(C2(N3CCCCC3)CCCSC2)c1` (stereo not drawn) [Ex 21, N-[3-(2-thienyl)-tetrahydro-4H-thiopyran-3-yl] piperidine] were, in that order, 0.008 µM, 0.0734 µM, 0.659 µM and 1.00.
For `c1csc(C2(N3CCCCC3)CCCCC2)c1` [TCP, N-(1-(2-thienyl)cyclohexyl)piperidine, reference compound], the IC50 at PCP3 sites (two-site non-linear regression) is 3.72 µM; at PCP2 sites (two-site non-linear regression) it was 0.059 µM.

These data come from patent US6342511B1, “Phencyclidine derivatives, preparation method and pharmaceutical compositions containing same” (Societe de Conseils de Recherches et d'Applications …, priority 1977, dated 2002).
